Experimental data published in patent US20030215788A1, “Cysteine thiol-protected peptides for use in immunoassays” (priority 1989, published 2003).
Entries after “also recorded” stand apart in the source; their conditions may differ. Where two headings read alike, the source gives them in different places.

Experiments:
Antibodies to HIV-1 [1] = type: binding, human
Protocol: Alternative methods of testing immunologic cross-reactivity were also used. In one such method L5 Peptides 39 and 39GC were tested by ELISA as previously described in U.S. Pat. No. 4,629,783. Briefly, stock solutions of peptides 39 and 39-GC were prepared in 6M Gu-HCl. Working dilutions of 20 µg/ml and 6 μg/ml respectively were prepared by dilution of stock solution 0 with 0.05M carbonate/bicarbonate buffer, pH 9.5. Wells of microtiter plates were filled with 100 μl of the working dilution of the peptides and allowed to stand overnight at room temperature. Coating solution was removed and 300 μl of blocking solution supra containing 0.5M ethanolamine was added for 1 hr. at room temperature. Blocking solution was removed and the plates were used immediately or allowed to dry and stored for later use.
Plasma samples were diluted (See Table 1) in sample dilution buffer (above) and 100 μl was added to individual wells. Samples were incubated for 30 min. at 37° C., then removed and the wells were washed six times with 0.15M NaCl, 0.05% Tween 20. One hundred microliters of goat antihuman Ig-horseradish peroxidase conjugate diluted in citrate buffer, pH 7.0, 1% normal goat serum was added to each well for 30 min at 37° C. prior to washing six times as above. The ELISA assay was developed by adding 100 μl/well of substrate solution (80 μg/ml tetramethyl benzidine, 0.0015% hydrogen peroxide in citrate/phosphate buffer, pH 6.0) for 30 min. at room temperature. Reactions were stopped with the addition of 100 μl of H2SO4 per well, and the ratio of the optical density at 450 nm to 630 nm was determined by an automated ELISA reader. The cutoff value for a positive result was set at 0.225 Absorbance Units above the average absorbance obtained for three known negative samples.

Antibodies to HIV-1 [2] = type: binding, human; settings: adsorbed on latex beads, absorbance at 405 nm
Protocol: Peptide 39 and its analogues were tested for immunological reactivity by a test tube assay wherein the peptides were immobilized by adsorption or covalent bonding onto latex beads.
Diluted peptide from a 4 mg/ml 6M GuHCl stock solution was added to the washed beads (25-200 μg peptide) to a final volume of 550 μl. The mixture was vigorously stirred for 30 sec. followed by less vigorous mixing overnight. Following overnight incubation 500 μl of distilled water was added and the beads were collected by centrifugation. The beads were washed with 1 ml of distilled water twice before being suspended in 100 μl of distilled water followed by the addition of 100 μl 0.5N NaOH with immediate mixing to deprotect the cysteine residues of the adsorbed peptide. Deprotection was stopped with the addition of 1 ml 0.25N HEPES, pH 7.4.
Air oxidation of the peptide/bead solution was carried out overnight at room temperature. Potassium ferricyanide was added to the peptide/bead solution to complete the oxidation. The tube was centrifuged and the beads were washed three times with 1 ml of distilled water. […]
Immunological reactivity of the peptides was detected indirectly by the alkaline phosphatase activity. […]
The beads were pelleted by centrifugation and the supernatant was measured for absorbance in a spectrophotometer at 405 nm.

For “Cys-Gly-Gly-Arg-Ile-Leu-Ala-Val-Glu-Arg-Tyr-Leu-Lys-Asp-Gln-Gln-Leu-Leu-Gly-Ile-Trp-Gly-Cys*-Ser-Gly-Lys-Leu-Ile-Cys*-NH2 [Peptide 39GC]”, the “Diagnosis by ELISA” value (Antibodies to HIV-1 [1]; PlasmaG (1:40)) was “Pos/Pos”, the “ELISA optical density (450 nm/630 nm)” value (Antibodies to HIV-1 [1]; PlasmaG (1:40)) was 0.895 and the “Diagnosis by ELISA” value (Antibodies to HIV-1 [1]; PlasmaG (1:80)) was “Pos”. The “ELISA optical density (450 nm/630 nm)” value (Antibodies to HIV-1 [1]; PlasmaG (1:80)) was 0.820, the “Diagnosis by ELISA” value (Antibodies to HIV-1 [1]; PlasmaG (1:160)) was “Pos” and the “ELISA optical density (450 nm/630 nm)” value (Antibodies to HIV-1 [1]; PlasmaG (1:160)) was 0.575. For the same substance, the “Diagnosis by ELISA” value (Antibodies to HIV-1 [1]; PlasmaG (1:320)) was “Neg/Neg”, the “ELISA optical density (450 nm/630 nm)” value (Antibodies to HIV-1 [1]; PlasmaG (1:320)) was 0.349 and the “Diagnosis by ELISA” value (Antibodies to HIV-1 [1]; PlasmaG (1:640)) was “Neg/Neg”. For the same substance, the “ELISA optical density (450 nm/630 nm)” value (Antibodies to HIV-1 [1]; PlasmaG (1:640)) was 0.179, the “Diagnosis by ELISA” value (Antibodies to HIV-1 [1]; PlasmaG (1:1280)) was “Neg/Neg” and the “ELISA optical density (450 nm/630 nm)” value (Antibodies to HIV-1 [1]; PlasmaG (1:1280)) was 0.107. For the same substance, the “Diagnosis by ELISA” value (Antibodies to HIV-1 [1]; PlasmaO (1:40)) was “Pos/Pos”, the “ELISA optical density (450 nm/630 nm)” value (Antibodies to HIV-1 [1]; PlasmaO (1:40)) was 1.439 and the “Diagnosis by ELISA” value (Antibodies to HIV-1 [1]; PlasmaO (1:80)) was “Pos/Pos”. The “ELISA optical density (450 nm/630 nm)” value (Antibodies to HIV-1 [1]; PlasmaO (1:80)) was 1.010, the “Diagnosis by ELISA” value (Antibodies to HIV-1 [1]; PlasmaO (1:160)) was “Pos/Pos” and the “ELISA optical density (450 nm/630 nm)” value (Antibodies to HIV-1 [1]; PlasmaO (1:160)) was 0.742. For the same substance, the “Diagnosis by ELISA” value (Antibodies to HIV-1 [1]; PlasmaO (1:320)) was “Pos”, the “ELISA optical density (450 nm/630 nm)” value (Antibodies to HIV-1 [1]; PlasmaO (1:320)) was 0.397 and the “Diagnosis by ELISA” value (Antibodies to HIV-1 [1]; PlasmaO (1:640)) was “Neg/Neg”. For the same substance, the “ELISA optical density (450 nm/630 nm)” value (Antibodies to HIV-1 [1]; PlasmaO (1:640)) was 0.279, the “Diagnosis by ELISA” value (Antibodies to HIV-1 [1]; PlasmaO (1:1280)) was “Neg/Neg” and the “ELISA optical density (450 nm/630 nm)” value (Antibodies to HIV-1 [1]; PlasmaO (1:1280)) was 0.165. The “dilution giving a positive result, compared with Peptide 39” value (Antibodies to HIV-1 [1]; plasma dilution panel, Table 1) was “positive result at a higher dilution than Peptide 39”, the ELISA optical density (Antibodies to HIV-1 [1]; seroconversion panel sample BBI-1) was 0.347 and the ELISA optical density (Antibodies to HIV-1 [1]; seroconversion panel sample BBI-2) was 0.317. The ELISA optical density (Antibodies to HIV-1 [1]; seroconversion panel sample BBI-3) was 0.842, the ELISA optical density (Antibodies to HIV-1 [1]; seroconversion panel sample BBI-4) was 1.105 and the ELISA optical density (Antibodies to HIV-1 [1]; seroconversion panel sample BBI-5) was 1.757. For the same substance, the ELISA optical density (Antibodies to HIV-1 [1]; seroconversion panel sample BBI-6) was 2.160, the ELISA optical density (Antibodies to HIV-1 [1]; seroconversion panel sample BBI-7) was 1.986 and the ELISA optical density (Antibodies to HIV-1 [1]; seroconversion panel sample BBI-8) was 2.317. It also gave an ELISA optical density (Antibodies to HIV-1 [1]; seroconversion panel sample BBI-9) of 2.328, an ELISA optical density (Antibodies to HIV-1 [1]; seroconversion panel sample BBI-20) of 0.136 and an ELISA optical density (Antibodies to HIV-1 [1]; seroconversion panel sample BBI-21) of 0.158. It also gave an ELISA optical density (Antibodies to HIV-1 [1]; seroconversion panel sample BBI-22) of 0.450, an ELISA optical density (Antibodies to HIV-1 [1]; seroconversion panel sample BBI-23) of 0.890 and an ELISA optical density (Antibodies to HIV-1 [1]; seroconversion panel sample BBI-24) of 1.064. For the same substance, the ELISA optical density (Antibodies to HIV-1 [1]; seroconversion panel sample BBI-25) was 0.845, the ELISA optical density (Antibodies to HIV-1 [1]; seroconversion panel sample BBI-26) was 0.852 and the ELISA optical density (Antibodies to HIV-1 [1]; seroconversion panel sample BBI-27) was 1.104. The ELISA optical density (Antibodies to HIV-1 [1]; seroconversion panel sample BBI-28) was 1.177, the ELISA optical density (Antibodies to HIV-1 [1]; seroconversion panel sample BBI-29) was 2.085 and the ELISA optical density (Antibodies to HIV-1 [1]; seroconversion panel sample BBI-30) was 2.214. It also gave an ELISA optical density (Antibodies to HIV-1 [1]; seroconversion panel sample BBI-31) of 2.207, an ELISA optical density (Antibodies to HIV-1 [1]; seroconversion panel sample BBI-32) of 2.263 and an ELISA optical density (Antibodies to HIV-1 [1]; seroconversion panel sample BBI-33) of 2.277. It also gave an ELISA optical density (Antibodies to HIV-1 [1]; seroconversion panel sample BBI-34) of 1.622, an ELISA optical density (Antibodies to HIV-1 [1]; seroconversion panel sample BBI-35) of 2.198 and an ELISA optical density (Antibodies to HIV-1 [1]; seroconversion panel sample BBI-36) of 2.265. The ELISA optical density (Antibodies to HIV-1 [1]; seroconversion panel sample BBI-37) was 2.105, the “time of first positive result on seroconversion panels” value (Antibodies to HIV-1 [1]; two seroconversion panels, Table 4) was “positive result earlier than whole virus ELISA; also recorded: positive result earlier than peptide 39 on one of the seroconversion panels” and the “immunological reactivity compared with Peptide 39” value (Antibodies to HIV-1 [2]) was “substantial improvement over Peptide 39”.
